Values after ≈ are worked out from the molar mass of the structure shown. Counter-ions that a name gives are not always drawn. Values belong to the molecule of their own block, whether it stands above or below them.
Columns and labels:
Morgania morganii SR9 = test: Antibacterial activity in vitro, minimal inhibitory concentration (two-fold agar dilution); type: cell-based
Experimental: (§1) Antibacterial activity in vitro : A solution of the test compound in 0.01N-aqueous sodium hydrogen carbonate was applied to an agar plate by two-fold dilution method and the minimal inhibitory concentrations against Gram-negative and Gram-positive bacteria were measured according to the standard method of the Japan Society of Chemotherapy.

[1] = test system: Enterobacter cloacae SR233; test: as above; type: cell-based
Experimental: as §1

[2] = Blood level at 15 minutes after oral administration to mice; type: in vivo, mouse; conditions: 40 mg/kg oral; for concentration at 0.25 h: mouse, blood
Experimental: The in vivo absorption rate of the compound I after oral administration was determined by administering a compound of the invention to mouse and measuring the blood level.
Blood level at 15 minutes after oral administration : A test compound (40 mg/kg) in a 5% suspension of arabic gum was administered to a mouse (weighing ca. 25 g) through an enteral tube. After 15 minutes, the blood in the heart cavity was taken and the concentration of the test compound was measured by the band culture method using Escherichia coli 7437.

[3] = test system: Staphylococcus aureus Smith; test: Antibacterial activity in vitro, minimal inhibitory concentration (two-fold agar dilution); type: cell-based
Experimental: as §1

[4] = test system: Staphylococcus aureus 209P JC-1; test: as above; type: cell-based; conditions: Staphylococcus aureus 209P JC-1, agar dilution
Experimental: as §1

Escherichia coli 7437 = test: as above; type: cell-based; conditions: Escherichia coli 7437, agar dilution
Experimental: as §1

Proteus vulgaris CN-329 = test: as above; type: cell-based; conditions: CN329; Proteus vulgaris CN-329, agar dilution
Experimental: as §1

[5] = test system: Pseudomonas aeruginosa A25619; test: as above; type: cell-based
Experimental: as §1

Escherichia coli EC-14 = test: as above; type: cell-based; conditions: EC14; Escherichia coli EC-14, agar dilution
Experimental: as §1

Proteus mirabilis PR4 = test: as above; type: cell-based
Experimental: as §1

[6] = test system: Serratia marcescens SR1005; test: as above; type: cell-based
Experimental: as §1

[7] = test system: Serratia marcescens A13880; test: as above; type: cell-based
Experimental: as §1

[8] = test system: Haemophilus influenzae SR3508; test: as above; type: cell-based
Experimental: as §1

[9] = test system: Klebsiella pneumoniae SR1; test: as above; type: cell-based; conditions: unit cut off in print
Experimental: as §1

Escherichia coli SR377 = test: as above; type: cell-based
Experimental: as §1

Structure (SMILES): Nc1nc(/C(=N/O)C(=O)N[C@@H]2C(=O)N3C(C(=O)O)=C(SCSCc4c[nH]nn4)CS[C@H]23)cs1 [Example 6-1, 7β-[(Z)-2-(2-aminothiazol-4-yl) -2-hydroxyiminoacetamido]-3-(1,2,3-triazol-4-ylmethylthiomethylthio) -3-cephem-4-carboxylic acid]
MIC (Morgania morganii SR9): 0.1 µg/mL (≈ 0.189 µM)
MIC [1]: 0.8 µg/mL (≈ 1.51 µM)
concentration at 0.25 h [2]: 12100 ng/mL

Structure (SMILES): O=C(CSC(F)F)N[C@@H]1C(=O)N2C(C(=O)O)=C(SCSc3c[nH]nn3)CS[C@H]12 [Example 7-1, 7β-difluoromethylthioacetamido-3-(1,2,3-triazol-4-ylthiomethylthio)-3-cephem-4-carboxylic acid]
MIC [3]: 0.1 µg/mL (≈ 0.213 µM)
concentration at 0.25 h [2]: 28000 ng/mL

Structure (SMILES): O=C(Cc1ccccc1)N[C@@H]1C(=O)N2C(C(=O)O)=C(SCSc3c[nH]nn3)CS[C@H]12 [Example 7-2, 7β-phenylacetylamino-3-(1,2,3-triazol-4-yl) thiomethylthio-3-cephem-4-carboxylic acid]
MIC [4]: 0.05 µg/mL (≈ 0.108 µM)
MIC [3]: 0.05 µg/mL (≈ 0.108 µM)
concentration at 0.25 h [2]: 15000 ng/mL

Structure (SMILES): O=C(O)C1=C(SCSc2c[nH]nn2)CS[C@@H]2[C@H](NC(=O)[C@H](O)c3ccccc3)C(=O)N12 [Example 7-3, 7β-D-mandelamido-3-(1,2,3-triazol-4-ylthiomethylthio)-3-cephem-4-carboxylic acid]
concentration at 0.25 h [2]: 18500 ng/mL

Structure (SMILES): Nc1nc(/C(=N/O)C(=O)N[C@@H]2C(=O)N3C(C(=O)O)=C(SCSc4c[nH]nn4)CS[C@H]23)cs1 [Example 7-5]
MIC [1]: 0.8 µg/mL (≈ 1.55 µM)
MIC (Escherichia coli 7437): 0.02 µg/mL (≈ 0.0389 µM)
blood level on oral administration [2]: 29600 ng/mL
concentration at 0.25 h [2]: 29600 ng/mL

Structure (SMILES): CO/N=C(\C(=O)N[C@@H]1C(=O)N2C(C(=O)O)=C(SCSc3c[nH]nn3)CS[C@H]12)c1csc(N)n1 [Example 7-6, 7β-(Z)-2-(2-aminothiazol-4-yl)-2-methoxyiminoacetyl]amino-3-(1,2,3-triazol-4-yl) thiomethylthio-3-cephem-4-carboxylic acid sodium salt]
MIC (Morgania morganii SR9): 0.1 µg/mL
MIC (Proteus vulgaris CN-329): 0.02 µg/mL
concentration at 0.25 h [2]: 15000 ng/mL

Structure (SMILES): Nc1nc(/C(=N/OC2CCCC2)C(=O)N[C@@H]2C(=O)N3C(C(=O)O)=C(SCSc4c[nH]nn4)CS[C@H]23)cs1 [Example 7-7, 7β-[(Z)-2-(2-aminothiazol-4-yl)-2-cyclopentyloxyiminoacetamido]-3-(1,2,3-triazol-4-ylthiomethylthio)-3-cephem-4-carboxylic acid]
MIC [5]: 0.8 µg/mL (≈ 1.37 µM)
MIC (Escherichia coli EC-14): 0.8 µg/mL (≈ 1.37 µM)

Structure (SMILES): C=CCO/N=C(\C(=O)N[C@@H]1C(=O)N2C(C(=O)O)=C(SCSc3c[nH]nn3)CS[C@H]12)c1csc(N)n1 [Example 7-8, 7β-[(Z)-2-(2-aminothiazol-4-yl)-2-(2-propenyloxyimino)acetamido]-3-(1,2,3-triazol-4-ylthiomethylthio) -3-cephem-4-carboxylic acid]
MIC [1]: 0.8 µg/mL (≈ 1.44 µM)
MIC (Escherichia coli EC-14): 0.4 µg/mL (≈ 0.721 µM)

Structure (SMILES): Nc1nc(CC(=O)N[C@@H]2C(=O)N3C(C(=O)O)=C(SCSc4c[nH]nn4)CS[C@H]23)cs1 [Example 7-10, 7β-[2-(2-aminothiazol-4yl)acetamido]-3-(1,2,3-triazol-4-ylthiomethylthio)-3-cephem-4-carboxylic acid]
MIC [3]: 0.1 µg/mL (≈ 0.206 µM)
MIC (Proteus vulgaris CN-329): 0.8 µg/mL (≈ 1.65 µM)
MIC (Escherichia coli EC-14): 0.8 µg/mL (≈ 1.65 µM)
concentration at 0.25 h [2]: 17100 ng/mL

Structure (SMILES): Nc1nc(C(=O)C(=O)N[C@@H]2C(=O)N3C(C(=O)O)=C(SCSc4c[nH]nn4)CS[C@H]23)cs1 [Example 7-11, 7β-[2-(2-aminothiazol-4-yl)glyoxylylamido]-3-(1,2,3-triazol-4-ylthiomethylthio) -3-cephem-4-carboxylic acid]
MIC (Escherichia coli EC-14): 0.4 µg/mL (≈ 0.801 µM)

Second part, the molecule after the results:

MIC (Proteus mirabilis PR4): 0.006 µg/mL
MIC (Proteus vulgaris CN-329): 0.006 µg/mL
Structure (SMILES): Nc1nc(/C(=N/OCC(=O)O)C(=O)N[C@@H]2C(=O)N3C(C(=O)O)=C(SCSc4c[nH]nn4)CS[C@H]23)cs1 [Example 7-13, 7μ-[(Z)-2-(2-aminothiazol-4-yl)-2-(sodiooxycarbonylmethoxyimino)acetamido]-3-(1,2,3-triazol-4-ylthiomethylthio) -3-cephem-4-carboxylic acid sodium salt]

MIC (Proteus mirabilis PR4): 0.01 µg/mL
MIC (Proteus vulgaris CN-329): 0.006 µg/mL
MIC (Escherichia coli EC-14): 0.2 µg/mL
Structure (SMILES): C[C@H](O/N=C(\C(=O)N[C@@H]1C(=O)N2C(C(=O)O)=C(SCSc3c[nH]nn3)CS[C@H]12)c1csc(N)n1)C(=O)O [Example 7-14, 7μ-(Z)-2-(2-aminothiazol-4-yl)-2-[(S)-1-sodiooxycarbonylethoxyimino]acetamido}-3-(1,2,3-triazol-4-ylthiomethylthio)-3-cephem-4-carboxylic acid sodium salt]

MIC (Proteus mirabilis PR4): < 0.003 µg/mL
MIC [6]: 0.8 µg/mL (≈ 1.37 µM)
Structure (SMILES): C=C(O/N=C(\C(=O)N[C@@H]1C(=O)N2C(C(=O)O)=C(SCSc3c[nH]nn3)CS[C@H]12)c1csc(N)n1)C(=O)O [Example 7-15, 7μ-[(Z)-2-(2-aminothiazol-4-yl)-2-(1-carboxyvinyloxyimino)acetamido]-3-(1,2,3-triazol-4-ylthiomethylthio)-3-cephem-4-carboxylic acid]

MIC [7]: 0.8 µg/mL (≈ 1.33 µM)
MIC (Proteus mirabilis PR4): 0.01 µg/mL (≈ 0.0166 µM)
MIC [5]: 1.6 µg/mL (≈ 2.66 µM)
Structure (SMILES): CC(C)(O/N=C(\C(=O)N[C@@H]1C(=O)N2C(C(=O)O)=C(SCSc3c[nH]nn3)CS[C@H]12)c1csc(N)n1)C(=O)O [Example 7-16, 7μ-[(Z)-2-(2-aminothiazol-4-yl) -2-(1-carboxy-1-methylethoxyimino)acetamido]-3-(1,2,3-triazol-4-ylthiomethylthio)-3-cephem-4-carboxylic acid]

MIC [8]: 0.1 µg/mL (≈ 0.189 µM)
MIC [1]: 0.8 µg/mL (≈ 1.51 µM)
MIC (Escherichia coli 7437): 0.02 µg/mL (≈ 0.0378 µM)
Structure (SMILES): Cn1cc(SCSC2=C(C(=O)O)N3C(=O)[C@@H](NC(=O)/C(=N\O)c4csc(N)n4)[C@H]3SC2)nn1 [Example 7-17, 7μ-[(Z)-2-(2-aminothiazol-4-yl) -2-hydroxyiminoacetamido]-3-(1-methyl-1,2,3-triazol-4-yl)thiomethylthio-3-cephem-4-carboxylic acid]

MIC (Escherichia coli 7437): 0.02 µg/mL (≈ 0.0378 µM)
Structure (SMILES): Cn1ncc(SCSC2=C(C(=O)O)N3C(=O)[C@@H](NC(=O)/C(=N\O)c4csc(N)n4)[C@H]3SC2)n1 [Example 7-18, 7μ-[(Z)-2-(2-aminothiazol-4-yl)-2-hydroxyiminoacetamido]-3-(2-methyl-1,2,3-triazol-4-yl)thiomethylthio-3 cephem-4-carboxylic acid]

MIC [1]: 0.4 µg/mL (≈ 0.757 µM)
MIC (Escherichia coli 7437): 0.02 µg/mL (≈ 0.0378 µM)
Structure (SMILES): Cn1nncc1SCSC1=C(C(=O)O)N2C(=O)[C@@H](NC(=O)/C(=N\O)c3csc(N)n3)[C@H]2SC1 [Example 7-19]

MIC [1]: 0.8 µg/mL (≈ 1.55 µM)
MIC (Escherichia coli 7437): 0.02 µg/mL (≈ 0.0389 µM)
MIC [9]: 0.05 µg/mL (≈ 0.0972 µM)
Structure (SMILES): Nc1nc(/C(=N/O)C(=O)N[C@@H]2C(=O)N3C(C(=O)O)=C(SCSc4nc[nH]n4)CS[C@H]23)cs1 [Example 7-20, 7μ-[(Z)-2-(2-aminothiazol-4-yl)-2-hydroxyiminoacetamido]-3-(1,2,4-triazol-3-yl)thiomethylthio-3-cephem-4-carboxylic acid]

MIC [1]: 0.4 µg/mL (≈ 0.752 µM)
MIC (Escherichia coli SR377): 0.4 µg/mL (≈ 0.752 µM)
MIC (Escherichia coli 7437): 0.01 µg/mL (≈ 0.0188 µM)
Structure (SMILES): Nc1nc(/C(=N/O)C(=O)N[C@@H]2C(=O)N3C(C(=O)O)=C(SCSc4cnns4)CS[C@H]23)cs1 [Example 7-24, 7μ-[(Z)-2-(2-aminothiazol-4-yl)-2-hydroxyiminoacetyl]amino-3-(1,2,3-thiadiazol-5-yl) thiomethylthio-3-cephem-4-carboxylic acid]

MIC (Morgania morganii SR9): 0.1 µg/mL (≈ 0.188 µM)
MIC [1]: 0.4 µg/mL (≈ 0.752 µM)
MIC (Escherichia coli SR377): 0.4 µg/mL (≈ 0.752 µM)
Structure (SMILES): Nc1nc(/C(=N/O)C(=O)N[C@@H]2C(=O)N3C(C(=O)O)=C(SCSc4nncs4)CS[C@H]23)cs1 [Example 7-25, 7μ-[(Z)-2-(2-aminothiazol-4-yl)-2-hydroxyiminoacetamido]-3-(1,3,4-thiadiazol-2-ylthiomethylthio)-3-cephem-4-carboxylic acid]

MIC (Morgania morganii SR9): 0.05 µg/mL (≈ 0.0916 µM)
MIC [1]: 0.8 µg/mL (≈ 1.47 µM)
MIC (Escherichia coli SR377): 0.8 µg/mL (≈ 1.47 µM)
MIC (Escherichia coli 7437): 0.02 µg/mL (≈ 0.0367 µM)
Structure (SMILES): Cc1nnc(SCSC2=C(C(=O)O)N3C(=O)[C@@H](NC(=O)/C(=N\O)c4csc(N)n4)[C@H]3SC2)s1 [Example 7-26, 7μ-[(Z)-2-(2-aminothiazol-4-yl)-2-hydroxyiminoacetamido]-3-(2-methyl-1,3,4-thiadiazol-5-ylthiomethylthio)-3-cephem-4-carboxylic acid]

MIC (Escherichia coli 7437): 0.01 µg/mL (≈ 0.0194 µM)
Structure (SMILES): Nc1nc(/C(=N/O)C(=O)N[C@@H]2C(=O)N3C(C(=O)O)=C(SCSc4nn[nH]n4)CS[C@H]23)cs1 [Example 7-27, 7μ-[(Z) 2-(2-aminothiazol-4-yl)-2-hydroxyiminoacetyl]amino-3-(tetrazol-5-yl)thiomethylthio-3-cephem-4-carboxylic acid]

MIC (Morgania morganii SR9): 0.1 µg/mL (≈ 0.189 µM)
MIC [1]: 0.8 µg/mL (≈ 1.51 µM)
MIC (Escherichia coli SR377): 0.4 µg/mL (≈ 0.755 µM)
MIC (Escherichia coli 7437): 0.02 µg/mL (≈ 0.0378 µM)
Structure (SMILES): Cn1nnnc1SCSC1=C(C(=O)O)N2C(=O)[C@@H](NC(=O)/C(=N\O)c3csc(N)n3)[C@H]2SC1 [Example 7-28, 7μ-[(Z)-2-(2-aminothiazol-4-yl)-2-hydroxyiminoacetyl]amino-3-(1-methyl-5-tetrazolyl) thiomethylthio-3-cephem-4-carboxylic acid]

MIC (Escherichia coli 7437): 0.01 µg/mL (≈ 0.0191 µM)
concentration at 0.25 h [2]: 18700 ng/mL
Structure (SMILES): Nc1nc(/C(=N/O)C(=O)N[C@@H]2C(=O)N3C(C(=O)O)=C(SCSc4ccccn4)CS[C@H]23)cs1 [Example 7-30]
